Legend:
[1] = organism: Cavia porcellus; assay: In vitro inhibition of spontaneous tone of guinea pig tracheal spirals; type: functional; conditions: Trachea
[2] = organism: Rattus norvegicus; assay: In vitro inhibition of noradrenaline-induced contractions in rat portal vein; type: functional
[3] = system: Rattus norvegicus; assay: Effective dose (after peroral administration) required to decrease systolic blood pressure by 30 mmHg in spontaneously hypertensive rats (SHR); type: functional; conditions: Artery, po
[4] = system: Rattus norvegicus; assay: Change in systolic blood pressure at intervals of 1 hr after oral administration of 1 mg/kg of compound in spontaneously hypertensive rats (in vivo); Not significant; type: functional, Artery
[5] = organism: Rattus norvegicus; assay: Percentage of inhibition of noradrenaline-induced contractions in rat portal vein at 10 uM (in vitro); type: functional
[6] = system: Rattus norvegicus; assay: Change in systolic blood pressure at intervals of 1 hr after oral administration of 0.1 mg/kg of compound in spontaneously hypertensive rats (in vivo); type: functional, Artery
[7] = organism: Rattus norvegicus; assay: Inhibition of noradrenaline-induced contractions in rat portal vein; Insoluble; type: functional
[8] = organism: Cavia porcellus; assay: Inhibition of spontaneous tone of guinea pig tracheal spirals; Insoluble; type: functional, Trachea
[9] = system: Rattus norvegicus; assay: Change in systolic blood pressure at intervals of 1 hr after oral administration of 1 mg/kg of compound in spontaneously hypertensive rats (in vivo); type: functional, Artery

IC50 [1]	IC50 [2]	SMILES	ED30 [3]	Delta blood pressure [4]	inhibition at 10 µM [5]	also measured
900 nM	800 nM	CC1(C)C=C(N2CCCC2=O)c2cc(C#N)ccc2C1=O	30 µg/kg	–	–	–
7900 nM	4900 nM	CC1(C)C(=O)c2ccc(C#N)cc2[C@@H](NC(=O)c2ccc([N+](=O)[O-])cc2)[C@@H]1O	–	<20 mmHg	–	–
–	–	CC1(C)Oc2ccc(C#N)cc2C(N2CCCC2=O)C1O (racemic) [CROMAKALIM]	50 µg/kg	–	–	–
3500 nM	–	C/C(=N/[C@@H]1c2cc(C#N)ccc2C(=O)C(C)(C)[C@H]1O)NC#N	–	<20 mmHg	19%	–
> 10000 nM	–	CC(=O)OC1c2ccc(Br)cc2C(n2ccccc2=O)=CC1(C)C (stereo not given)	–	<20 mmHg	38%	–
> 10000 nM	–	CC1(C)C(=O)c2ccc(C#N)cc2[C@@H](NC(=O)c2ccncc2)[C@@H]1O	–	<20 mmHg	39%	–
200 nM	500 nM	CC1(C)C=C(n2ccccc2=O)c2cc(Br)ccc2C1=O	9 µg/kg	–	–	Max fall in blood pressure [6]: 42.6 mmHg
> 10000 nM	–	CC1(C)C=C(n2ccccc2=O)c2cc(C(N)=O)ccc2C1=O	–	<20 mmHg	21%	–
> 10000 nM	–	CC1(C)C(=O)c2ccc(C#N)cc2[C@@H](NC(=O)c2ccc(Cl)c(Cl)c2)[C@@H]1O	–	<20 mmHg	67%	–
–	–	CC1(C)C(=O)c2ccccc2[C@@H](n2ccccc2=O)[C@@H]1O	–	<20 mmHg	0%	–
–	–	CC1(C)C=C(n2ccccc2=O)c2cc(C(F)(F)C(F)(F)F)ccc2C1=O	2 µg/kg	–	–	IC50 [7]: Insoluble; Max fall in blood pressure [6]: 81 mmHg; IC50 [8]: Insoluble
600 nM	2800 nM	Cn1nc(O[C@@H]2c3cc(C#N)ccc3C(=O)C(C)(C)[C@H]2O)ccc1=O	40 µg/kg	–	–	–
> 10000 nM	–	CC1(C)C(=O)c2ccc(Br)cc2C(N2CCCC2=O)[C@@H]1O (stereo not given in full)	–	–	40%	Max fall in blood pressure [9]: 39 mmHg
–	–	CC1(C)C=C(N2CCCC2=O)c2ccccc2C1=O	–	<20 mmHg	0%	–
> 10000 nM	–	CC1(C)C=C(n2ccccc2=O)c2cc(C(=O)O)ccc2C1=O	–	<20 mmHg	0%	–
500 nM	300 nM	CC1(C)C=C(n2ccccc2=O)c2cc(C(F)(F)F)ccc2C1=O	5 µg/kg	–	–	–
> 10000 nM	–	CC1(C)C(=O)c2ccc(C#N)cc2[C@@H](NC(=O)c2ccc(Cl)cc2Cl)[C@@H]1O	–	<20 mmHg	35%	–
9100 nM	52000 nM	CNc1ccc2c(c1)C(n1ccccc1=O)=CC(C)(C)C2=O	–	<20 mmHg	–	–
4200 nM	–	CC1(C)C=C(n2ccccc2=O)c2cc(Br)ccc2C1(C)O (stereo not given)	–	<20 mmHg	23%	–
12500 nM	–	CC1(C)C=C(n2ccccc2=O)c2cc(C#N)ccc2/C1=N\O	–	–	27%	Max fall in blood pressure [9]: 28 mmHg
300 nM	100 nM	CC1(C)Oc2ccc(C#N)cc2[C@@H](N2CCCC2=O)[C@@H]1O [LEVCROMAKALIM]	10 µg/kg	–	–	Max fall in blood pressure [6]: 73 mmHg
17000 nM	–	COC1c2ccc(Br)cc2C(n2ccccc2=O)=CC1(C)C (stereo not given)	–	–	22%	Max fall in blood pressure [9]: 28 mmHg
200 nM	1000 nM	C#Cc1ccc2c(c1)C(n1ccccc1=O)=CC(C)(C)C2=O	2 µg/kg	–	–	Max fall in blood pressure [9]: 94 mmHg
500 nM	600 nM	CC1(C)C=C(n2ccccc2=O)c2cc(C#N)ccc2C1=O	4 µg/kg	–	–	–
–	–	COc1ccc2c(c1)C(N1CCCC1=O)=CC(C)(C)C2=O	–	<20 mmHg	20%	–
2100 nM	8800 nM	CC1(C)C(=O)c2ccc(C#N)cc2[C@@H](Oc2ccc(=O)[nH]n2)[C@@H]1O	6 µg/kg	–	–	–

SMILES	IC50 [1]	IC50 [2]	ED30 [3]	Delta blood pressure [4]	inhibition at 10 µM [5]	also measured
CC1(C)C=C(n2ccccc2=O)c2cc(C#C[Si](C)(C)C)ccc2C1=O	2400 nM	500 nM	5 µg/kg	–	–	–

Source: ChEMBL document CHEMBL1126745, “2,2-Dialkylnaphthalen-1-ones as new potassium channel activators” (J Med Chem, 1993)
